# How the values were obtained:
# [1] = test system: bovine coronavirus (BCV) Kakegawa strain and Mebus strain; conditions: 1, 5, 10, 20 or 30 mmol/l reduced glutathione; MDBK cells; supernatant at 24, 48, 72 and 96 hours; FIGS. 1 and 2
# Description: Madin Darby Bovin Kidney (MDBK) cells (ATCC CCL-22) was incubated with a 48-well plate such that the cells were 90% confluent, and then washed twice with a phosphate buffered saline (PBS).
# Each of bovine coronavirus (BCV) Kakegawa strain (procured from Nippon Zenyaku Kogyo Co., Ltd.) [2.56 to 256 hemagglutinin (HA) titer/25 μl] and Mebus strain (ATCC VR-874) (0.064 and 0.64 HA titers/25 μl) at various concentrations, these strains being diluted with fetal bovine serum (FBS)-free Minimum Essential Medium (MEM) [Science, 122, 501 (1952)], was inoculated in an amount of 200 μl/well, and incubated at 37° C. for 90 minutes while moving a plate at intervals of 15 minutes. After the culture solution was washed three times with PBS, 500 μl/well of 5% FBS-containing MEM containing 1, 5, 10, 20 or 30 mmol/l of reduced glutathione was added thereto, and the mixture was further incubated at 37° C. During the incubation, 100 μl of the supernatant was recovered in 24, 48, 72 and 96 hours to measure a hemagglutinin (HA) titer.
# The HA titer was measured by adding 25 μl of PBS containing 0.03% BSA to each well, adding 25 μl of the BCV culture supernatant thereto by multiple dilution, adding 0.8% mouse immobilization red cells thereto and measuring an agglutination reaction of red cells after 3 hours. […]
# BCV Kakegawa strain = assay: Contact of BCV with catechin (EGCg) before inoculation of MDBK cells, TCID50 by cell denaturation effect; format: cell-based, bovine coronavirus; conditions: 1 mg/ml EGCg
# Description: BCV Kakegawa strain with a 50% tissue culture infectious dose (TCID50) of 1.8×10^8/ml and 1 mg/ml of catechin (EGCg: procured from Pharma Foods International Co., Ltd.) were contacted at 25° C. or 37° C. for 30, 60 or 90 minutes respectively, and a 10-fold dilution series was then produced with MEM.
# After the cells were washed three times with PBS, 5% FBS-containing MEM was added in an amount of 500 μl/well, and incubation was conducted for 72 hours. Subsequently, the cells infected with the virus were identified with a cell denaturation effect to measure TCID50.
# BVDV(ATCC VR524) = assay: Contact of BVDV with catechin (EGCg) before inoculation of MDBK cells, detection of BVDV-derived DNA by RT-PCR; format: cell-based, bovine viral diarrhea virus; conditions: 1 mg/ml catechin (EGCg), incubation 6 days
# Description: The cells were washed three times with PBS, and 5% FBS-containing MEM was added thereto. Incubation was further conducted at 37° C. for 6 days.
# After completion of the incubation, a DNA derived from BVDV in the MDBK cells was detected by RT-PCR to confirm whether or not the cells were infected with the virus.
compound,measurement,setting,value
"N[C@@H](CCC(=O)N[C@@H](CS)C(=O)NCC(=O)O)C(=O)O [reduced glutathione, γ-L-Glu-L-Cys-Gly]",growth of coronavirus (hemagglutinin (HA) titer of culture supernatant),[1],effect of inhibiting growth of coronavirus
"O=C(O[C@@H]1Cc2c(O)cc(O)cc2O[C@@H]1c1cc(O)c(O)c(O)c1)c1cc(O)c(O)c(O)c1 [EGCg, epigallocatechin gallate]","10^(n) TCID50/ml, EGCg-treated virus","BCV Kakegawa strain; contact 30 min, temperature cell empty (row between 25° C. and 37° C.), control 8.25",4.25 10^(n) TCID50/ml
same,"10^(n) TCID50/ml, EGCg-treated virus","BCV Kakegawa strain; contact at 25° C. for 30 min, control 7.25",5.75 10^(n) TCID50/ml
same,"10^(n) TCID50/ml, EGCg-treated virus","BCV Kakegawa strain; contact at 37° C. for 60 min, control 7.75",<2.75 10^(n) TCID50/ml
same,"10^(n) TCID50/ml, EGCg-treated virus","BCV Kakegawa strain; contact at 37° C. for 90 min, control 6.50",<2.00 10^(n) TCID50/ml
same,BVDV-derived DNA in MDBK cells by RT-PCR,"BVDV(ATCC VR524); contact at 37° C. for 30, 60 or 90 minutes",became undetected depending on the catechin treatment time
same,BVDV-derived DNA in MDBK cells by RT-PCR,BVDV(ATCC VR524); contact at 37° C. for 90 minutes,not detected at all
